Laboratory results as given in PubChem BioAssay (NCI).
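Method: 48-hour compound exposure of cells in 96-well plates, five concentrations, linear interpolation of endpoints. At the TGI there is no net growth.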

Assays:
Assay in all cases: growth of human tumour cells (NCI), 48 h
[1] = test system: MDA-N
[2] = test system: SK-MEL-5 melanoma
[3] = test system: IGROV1 ovarian
[4] = test system: NCI-H23 lung
[5] = test system: U251 CNS
[6] = test system: SR leukemia
[7] = test system: DU-145 prostate
[8] = test system: MDA-MB-435
[9] = test system: NCI-H226 lung
[10] = test system: SW-620 colon
[11] = test system: 786-0 renal
[12] = test system: EKVX NSCLC
[13] = test system: SF-268 CNS
[14] = test system: HCC-2998 colon
[15] = test system: PC-3 prostate
[16] = test system: LOX IMVI melanoma
[17] = test system: CAKI-1 renal
[18] = test system: KM12 colon
[19] = test system: A498 renal
[20] = test system: COLO 205 colon
[21] = test system: HOP-62 NSCLC
[22] = test system: SK-MEL-2 melanoma
[23] = test system: T-47D breast
[24] = test system: OVCAR-5 ovarian
[25] = test system: NCI-H522 lung
[26] = test system: TK-10 renal
[27] = test system: CCRF-CEM leukemia
[28] = test system: RXF 393 renal
[29] = test system: UO-31 renal
[30] = test system: NCI-H460 lung
[31] = test system: OVCAR-3 ovarian
[32] = test system: SN12C renal
[33] = test system: HCT-116 colon
[34] = test system: MDA-MB-231 breast
[35] = test system: K-562 leukemia
[36] = test system: HCT-15 colon
[37] = test system: MALME-3M melanoma
[38] = test system: OVCAR-4 ovarian
[39] = test system: SNB-75 CNS
[40] = test system: NCI/ADR-RES ovarian
[41] = test system: UACC-62 melanoma
[42] = test system: OVCAR-8 ovarian
[43] = test system: HL-60(TB) leukemia
[44] = test system: SNB-19 CNS
[45] = test system: A549 NSCLC
[46] = test system: ACHN renal
[47] = test system: MCF7 breast
[48] = test system: SK-MEL-28 melanoma
[49] = test system: HOP-92 NSCLC
[50] = test system: MOLT-4 leukemia
[51] = test system: UACC-257 melanoma
[52] = test system: HT29 colon
[53] = test system: BT-549 breast
[54] = test system: SF-295 CNS
[55] = test system: SF-539 CNS
[56] = test system: HS 578T breast
[57] = test system: RPMI-8226 leukemia
[58] = test system: SK-OV-3 ovarian
[59] = test system: M14 melanoma

Measured: TGI

CCOC(=O)C1C(=O)CC(O)(OCC)C(C(=O)OCC)C1c1ccc(OC)cc1 (stereo not given)
not listed: [55] | [56] | [57] | [58] | [59]
> 100 µM: all other assays above

Cc1ccc(C)c(NC(=O)C(=O)C(c2cnc3ccc([N+](=O)[O-])cc3n2)[N+](=O)[O-])c1 (stereo not given)
69 µM: [19]
39.4 µM: [57]
63.8 µM: [40]
83.8 µM: [3]
45.2 µM: [43]
38.2 µM: [38]
79.1 µM: [27]
48.2 µM: [42]
not listed: [16] | [17] | [34]
> 100 µM: all other assays above
